Where two headings read alike, the source gives them in different places.
Legend:
[1] = tested on: cardiomyocytes (Cardiosight-S)
Description: (§1) Next, cardiomyocytes (Cardiosight-S) differentiated from human pluripotent stem cells (hPSCs) from NEXEL were mixed with a hydrogel such as collagen, and then injected using a pipette into the cell inlet connected to the inner cell chamber of the multi-organ-on-a-chip prepared in Example 1, thereby injecting cardiomyocytes into the inner cell chamber.
Next, 1 x 10^5 cultured hepatocytes (HepG2) were injected using a pipette into each cell inlet connected to the two outer cell chambers of the multi-organ-on-a-chip prepared in Example 1, thereby injecting hepatocytes into the two outer cell chambers.
(§2) Next, the hydrogel comprised in the injected cardiomyocyte mixture was cured to fix the cardiomyocytes within the cell chamber. Depending on the type of hydrogel, curing is performed using different curing methods. In the case of collagen, curing was performed via temperature change by placing in an incubator for at least 1 hour, and then cardiomyocytes were continuously cultured in the incubator.
Further, hepatocytes were fixed and cultured using the same method. […]

[2] = tested on: cardiomyocytes (Cardiosight-S); details: control heart-on-a-chip, 9,000 µM cyclophosphamide, compared to cardiomyocytes not treated with cyclophosphamide
Excerpt: as §1, §2
The culture was performed by supplying a culture medium comprising a mixture of Cardiosight-S Media supplemented with supplement (50X) and Minimum Essential Media Eagle (MEM, high-glucose, gibco) supplemented with 25 mM HEPES (4-(2-hydroxyethyl)-1-piperazineethanesulfonic acid, gibco), 10% (v/v) FBS, P/S (100 Uml-1 penicillin/100 Uml-1 streptomycin, Sigma-Aldrich Co., MO) at a certain ratio. […]

O=P1(N(CCCl)CCCl)NCCCO1 (stereo not drawn) [cyclophosphamide]
effect on the beating rate of cardiomyocytes ([1]; liver-heart-on-a-chip compared to the control heart-on-a-chip, 0, 1,000, 5,000, or 9,000 µM (FIG. 8)): more significant effect | beating rate of the cardiomyocytes increased ([1]; liver-heart-on-a-chip, 9,000 µM cyclophosphamide, compared to cardiomyocytes not treated with cyclophosphamide): 177.9 ± 2.56% | beating rate of the cardiomyocytes increased [2]: 31.76 ± 0.59%
